Reference: US7950396B2, “Treatment for otitis externa” (priority 2006, dated 2011)

Key:
MRSA [1] = assay: Photodisinfection of MRSA biofilms in vitro (methylene blue plus Periowave laser); format: cell-based, Methicillin-resistant Staphylococcus aureus
From the text: (§1) Photodisinfection treatments using methods contemplated by the present invention have been tested against MRSA, Escherichia coli (E. coli), and Enterococcus fecalis (E. fecalis) in vitro and reached high levels of disinfection in within seconds to one minute. Photosensitizing composition comprising of methylene blue at various concentrations ranging from about 0.005 wt % to 0.1 wt % was applied to biofilms of MRSA, E. coli and E. fecalis for about ten seconds. These biofilms were then illuminated by a laser light system at a wavelength of about 665 nm to about 675 nm for a period from about 0 seconds to about 60 seconds (e.g., accumulated energy level of about 0 J/cm^2 to about 9 J/cm^2). The laser light system used was the Periowave™ system which includes a low-intensity laser with power at about 240 mW and the optical probe described in PCT Patent Publication No. WO2006115761.

E. coli [2] = assay: Photodisinfection of E. coli biofilms in vitro (methylene blue plus Periowave laser); format: cell-based, Escherichia coli
From the text: as §1

E. fecalis = assay: Photodisinfection of E. fecalis biofilms in vitro (methylene blue plus Periowave laser); format: cell-based, Enterococcus fecalis; details: methylene blue and low power laser
From the text: as §1

MRSA [3] = assay: SEM evaluation of MRSA biofilms after photodisinfection; format: cell-based, Methicillin-resistant Staphylococcus aureus; details: about 0.1 wt % methylene blue, about 10 s contact, 665-675 nm for about 30 seconds, Periowave laser
Procedure: Biofilms heavily colonized with one to four layers of MRSA organisms were contacted with a photosensitizing composition comprising methylene blue at a concentration of about 0.1 wt % for about 10 seconds and then illuminated at a wavelength of about 665 nm to about 675 nm for a period from about 30 seconds using the Periowave™ laser. Thereafter, these biofilms and the controlled MRSA biofilms (e.g., no photodisinfection treatment) were incubated overnight in 0.9 wt % saline and then fixed in 10 wt % Formalin for scanning electron microscope (SEM) evaluation.

E. coli [4] = assay: SEM evaluation of E. coli biofilms after photodisinfection; format: cell-based, Escherichia coli; details: about 0.1 wt % methylene blue, about 10 s contact, 665-675 nm for about 30 seconds, Periowave laser
Procedure: Biofilms heavily colonized with one to three layers of Escherichia coli (E. coli) organisms were contacted with a photosensitizing composition comprising methylene blue at a concentration of about 0.1 wt % for about 10 seconds and then illuminated at a wavelength of about 665 nm to about 675 nm for a period from about 30 seconds using the Periowave™ laser. Thereafter, these biofilms and the controlled E. coli biofilms (e.g., no photodisinfection treatment) were incubated for three hours in 0.9% saline and then fixed in 10% Formalin for scanning electron microscope (SEM) evaluation.

otitis externa [5] = assay: Study on patients suffering otitis externa (photodisinfection, Periowave laser); format: in vivo, human
Procedure: A study was conducted on patients suffering otitis externa. During the study, a photosensitizing composition comprising of methylene blue at a concentration of about 0.01 wt % was applied using a cotton swab to the treatment site as shown in FIG. 37. Thereafter and referring to FIGS. 38-39, light at a wavelength range from about 665 nm to about 675 nm was applied to the photosensitizing composition located within the treatment site 64 for a period from about 3 minutes to about 5 minutes (3-5 repetitive one minute cycles) using the Periowave™ laser light system.

otitis externa [6] = assay: Photodisinfection of otitis externa treatment site (Examples V to VII); format: in vivo
Procedure: A photosensitizing composition comprising of methylene blue at a concentration of about 0.1 wt % is applied to the otitis externa treatment site. Light at a wavelength range from about 650 nm to about 680 nm is applied to the photosensitizing composition located within the otitis externa treatment site for a period from about 6 minutes to about 10 minutes using a laser with power at about 80 mW. The otitis externa was ameliorated.
A photosensitizing composition comprising of methylene blue at a concentration range of from about 0.001 wt % to about 0.1 wt % is applied to the otitis externa treatment site. Light at a wavelength range from about 650 nm to about 680 nm is applied to the photosensitizing composition located within the treatment site for a period from about 1 minute to about 20 minutes using a laser with power at a range from about 50 mW to about 300 mW. The otitis externa was ameliorated.
A photosensitizing composition comprising of toluidine blue at a concentration range of from about 0.001% wt % to about 0.1 wt % is applied to the otitis externa treatment site. Light at a wavelength range from about 620 nm to about 650 nm is applied to the photosensitizing composition located within the otitis externa treatment site for a period from about 1 minute to about 20 minutes using a laser with power at a range from about 50 mW to about 300 mW. The otitis externa was ameliorated.
For Examples V to VII, it was shown that there is a general inverse relationship between (1) the photosensitizer concentration and (2) the photodisinfection treatment time and/or the amount of power required for the light source. For example, higher concentration of photosensitizer requires less treatment time and/or lower light source power. Conversely, lower concentration of photosensitizer requires longer treatment time and/or higher light source power. Also, less treatment time requires higher concentration of photosensitizer and/or higher light source power.

[7] = at least 0.02 wt % methylene blue, about 10 s contact, laser 665-675 nm for at least 15 seconds (at least 2.25 J/cm^2), 240 mW
[8] = methylene blue and low power laser

CN(C)c1ccc2nc3ccc(=[N+](C)C)cc-3sc2c1 [methylene blue]
reduction of MRSA (logs) (MRSA [1]; [7]): at least three logs | elimination of MRSA by photodisinfection (MRSA [1]; [8]): effectively eliminated | reduction of E. coli (logs) (E. coli [2]; [7]): at least three logs | elimination of E. coli by photodisinfection (E. coli [2]; [8]): effectively eliminated | elimination of E. Fecalis by photodisinfection (E. fecalis): effectively eliminated | reduction of MRSA in SEM photograph vs controlled biofilm (MRSA [3]): substantial reduction of MRSA | reduction of E. coli in SEM photograph vs controlled biofilm (E. coli [4]): substantial reduction of E. coli | outcome of otitis externa, many patients (otitis externa [5]; about 0.01 wt % methylene blue by cotton swab, 665-675 nm for about 3 to 5 minutes (3-5 one minute cycles)): ameliorated | outcome of otitis externa, patients with severe otitis externa (otitis externa [5]; same protocol, about 2 to about 5 additional treatments over about one to two weeks): also ameliorated | outcome of otitis externa (otitis externa [6]; about 0.001 to 0.1 wt %, 650-680 nm for about 1 to 20 minutes, laser about 50 to 300 mW): ameliorated | outcome of otitis externa (otitis externa [6]; about 0.1 wt %, 650-680 nm for about 6 to 10 minutes, laser about 80 mW): ameliorated

Cc1cc2nc3ccc(N(C)C)cc3[s+]c2cc1N.[Cl-] [toluidine blue]
outcome of otitis externa (otitis externa [6]; about 0.001 to 0.1 wt %, 620-650 nm for about 1 to 20 minutes, laser about 50 to 300 mW): ameliorated
